From patent US10669258B2, “3-sulfonyl-5-aminopyridine-2,4-diol APJ agonists” (BRISTOL-MYERS SQUIBB COMPANY, priority 2016, dated 2020) come the findings set out here.

In one assay the target is T1, human APJ receptor (Homo sapiens, UniProt P35414).
T1 construct: expressed in transfected cells; host or cells: HEK293
T1 sequence (P35414 1-380): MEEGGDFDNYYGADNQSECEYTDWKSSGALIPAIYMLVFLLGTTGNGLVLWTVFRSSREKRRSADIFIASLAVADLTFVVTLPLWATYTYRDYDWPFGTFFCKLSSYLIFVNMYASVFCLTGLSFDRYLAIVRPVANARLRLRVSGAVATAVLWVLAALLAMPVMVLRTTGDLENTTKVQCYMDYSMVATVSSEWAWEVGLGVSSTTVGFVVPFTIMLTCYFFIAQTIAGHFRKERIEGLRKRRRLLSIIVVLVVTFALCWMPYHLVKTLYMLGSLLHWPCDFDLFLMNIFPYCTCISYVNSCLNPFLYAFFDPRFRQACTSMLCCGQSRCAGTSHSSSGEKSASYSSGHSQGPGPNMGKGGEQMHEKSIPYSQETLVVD
Kind of assay: Intracellular cAMP accumulation assay (APJ hcAMP, HTRF). In kind it is cell-based. Particulars: HEK293 cells stably expressing human APJ receptor; inhibition of forskolin-mediated cAMP production; Table 1; read-out: hAPJ cAMP EC50 Potency range. The protocol: Intracellular cAMP Accumulation Assay
HEK293 cells stably expressing human APJ receptor were used to assess the activity of compounds. Cultured cells were detached and resuspended in the cAMP Homogeneous Time-Resolved Fluorescence (HTRF) assay buffer (Cisbio cat; #62AM4PEJ). The assay was performed in 384-well assay plates (Perkin-Elmer; cat #6008289) according to assay protocol provided by the manufacturer. Serial dilutions of a compound together with assay buffer containing […] IBMX and 2 μM forskolin were added to each well containing 5,000 cells and incubated for 30 minutes at room temperature. Subsequently, cAMP D2 reagent was added in the lysis buffer followed by the EuK antibody (Cisbio; cat #62AM4PEJ) and incubated for 60 min. The fluorescence emission ratio was measured using fluorometer. The intracellular cAMP concentrations (compound-stimulated inhibition of forskolin-mediated cAMP production) were calculated by extrapolation from a standard curve using known cAMP concentrations. The EC50 values were obtained by fitting the data to a sigmoidal concentration-response curve with variable slope. The maximal achievable inhibition of forskolin-induced cAMP levels (Ymax) for each compound was expressed as relative percentage of inhibition attained using pyroglutamated apelin-13 ((Pyr1)apelin-13) peptide, which was set to 100%.
The examples disclosed below were tested in the APJ in vitro assays described above and were found having human APJ cyclic AMP (hcAMP) activity. The EC50 value of each compound is presented at the end of the example description.
The biological activity of the exemplified compounds of this invention determined by the assay described above is shown at the end of each example.
For orientation: cAMP levels reflect the balance of adenylyl cyclase and phosphodiesterase activity.
With `CCCCc1nc(O)c(S(=O)(=O)c2ccc(-c3ccc(F)nc3C)cc2)c(O)c1N(c1ccccc1)C(C)C` [Example 026, 6-butyl-3-((4-(6-fluoro-2-methylpyridin-3-yl)phenyl)sulfonyl)-5-(isopropyl(phenyl)amino)pyridine-2,4-diol], the EC50 was in the range of 0.01 to 10 nM.
The same measure, in the same setting: for `CCCCc1nc(O)c(S(=O)(=O)c2ccc(-c3ccnc(F)c3C)cc2)c(O)c1N(C)c1cccc(F)c1` [Example 106, 6-butyl-3-((4-(2-fluoro-3-methylpyridin-4-yl)phenyl)sulfonyl)-5-((3-fluorophenyl)(methyl)amino)pyridine-2,4-diol] the value was 0.01 to 10 nM; for `CCCCc1nc(O)c(S(=O)(=O)c2ccc(-c3ccccc3C(=O)NC)cc2)c(O)c1N(C)c1ccccc1F` [Example 176, 4′-((6-butyl-5-((2-fluorophenyl)(methyl)a-mino)-2,4-dihydroxypyridin-3-yl)sulfonyl)-N-methyl-[1,1′-biphenyl]-2-carboxamide], 0.01 to 10 nM.
Turning to `CCN(c1ccccc1)c1c(-c2cnn(C)c2)nc(O)c(S(=O)(=O)c2ccc(-c3ccccc3C(=O)N(C)C)cc2)c1O` [Example 154, 4′-((5-(ethyl(phenyl)amino)-2,4-dihydroxy-6-(1-methyl-1H-pyrazol-4-yl)pyridin-3-yl)sulfonyl)-N,N-dimethyl-[1,1′-biphenyl]-2-carboxamide], the EC50 was 0.01 to 10 nM.
As to `CCN(c1ccccc1)c1c(-c2cccc(C)c2)nc(O)c(S(=O)(=O)c2ccc(-c3ccncc3C)cc2)c1O` [Example 120, 5-(ethyl(phenyl)amino)-3-((4-(3-methylpyridin-4-yl)phenyl)sulfonyl)-6-(m-tolyl)pyridine-2,4-diol], the EC50 lay within 0.01 to 10 nM.
Same read-out and setting: in the case of `CCN(c1ccccc1)c1c(-c2cccc(C)c2)nc(O)c(S(=O)(=O)c2ccc(-c3ccccc3C(=O)NC)cc2)c1O` [Example 145, 4′-((5-(ethyl(phenyl)amino)-2,4-dihydroxy-6-(m-tolyl)pyridin-3-yl)sulfonyl)-N-methyl-[1,1′-biphenyl]-2-carboxamide] it was 0.01 to 10 nM; in that of `CCCCc1nc(O)c(S(=O)(=O)c2ccc(-c3ccc(F)nc3C)cc2)c(O)c1N1c2ccccc2CCC1C` (centres unmarked) [Example 048, 6-butyl-3-((4-(6-fluoro-2-methylpyridin-3-yl)phenyl)sulfonyl)-5-(2-methyl-3,4-dihydroquinolin-1(2H)-yl)pyridine-2,4-diol], 0.01 to 10 nM.
The same measure, in the same setting: for `CCN(c1ccccc1)c1c(CC2CC2)nc(O)c(S(=O)(=O)c2ccc(-c3ccccc3C(=O)N(C)C)cc2)c1O` [Example 062, 4′-((6-(cyclopropylmethyl)-5-(ethyl(phenyl)amino)-2,4-dihydroxypyridin-3-yl)sulfonyl)-N,N-dimethyl-[1,1′-biphenyl]-2-carboxamide] the value was 0.01 to 10 nM.

Still in this assay, the particulars now being: HEK293 cells stably expressing human APJ receptor; inhibition of forskolin-mediated cAMP production; Table 2; read-out: hAPJ cAMP EC50 Potency range.
Consider `CC(C)N(c1ccccc1)c1c(-c2ccn(C)n2)nc(O)c(C(=O)N2CCC(c3ccc(F)cc3F)C2)c1O` (centres unmarked) [Example 209, (3-(2,4-difluorophenyl)pyrrolidin-1-yl)(2,4-dihydroxy-5-(isopropyl(phenyl)amino)-6-(1-methyl-1H-pyrazol-3-yl)pyridin-3-yl)methanone], for which the EC50 is 0.01 to 10 nM.
Still for that read-out and setting: in the case of `CCN(c1ccccc1)c1c(-c2ccn(C)n2)nc(O)c(C(=O)N2CCC(c3ncc(Cl)cc3F)C2)c1O` (centres unmarked) [Example 204, (3-(5-chloro-3-fluoropyridin-2-yl)pyrrolidin-1-yl)(5-(ethyl(phenyl)amino)-2,4-dihydroxy-6-(1-methyl-1H-pyrazol-3-yl)pyridin-3-yl)methanone] it was 0.01 to 10 nM.

Still in this assay, the particulars now being: hAPJ cAMP EC50 Potency range, HEK293 cells stably expressing human APJ receptor; inhibition of forskolin-mediated cAMP production; Table 2.
Compound `CCN(c1ccccc1)c1c(-c2ccn(C)n2)nc(O)c(C(=O)N2CCC(c3ncc(F)cc3F)C2)c1O` (centres unmarked) [Example 197, (3-(3,5-difluoropyridin-2-yl)pyrrolidin-1-yl)(5-(ethyl(phenyl)amino)-2,4-dihydroxy-6-(1-methyl-1H-pyrazol-3-yl)pyridin-3-yl)methanone] gave an EC50 of 0.01 to 10 nM.

For orientation: EC50 means the concentration giving half of the maximal effect.
